Test results from the supplement of paper PMC10307832.

Tests used:
Assay in all cases: relative viability (nuclei count vs DMSO), 5 days (fraction); higher = more cells survive
LCLC-103H = test system: LCLC-103H
How it was run: (§1)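 Relative viability divides the nuclei count in treated wells by that in vehicle wells. Lung cancer cell lines were seeded in 1536-well plates, dosed by pin tool the next day, and fixed and stained after 5 days in one step with final 0.05% Triton X-100, 1% formaldehyde and 1 ug/ml Hoechst. Dosing was a single drug or a fixed anchor-drug dose plus five library-drug doses (not always all listed) in √10 steps, and values are medians of duplicate plates imaged at 4×.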

LXF-289 = test system: LXF-289
How it was run: as §1

NCI-H1355 = test system: NCI-H1355
How it was run: as §1

NCI-H1563 = test system: NCI-H1563
How it was run: as §1

NCI-H1651 = test system: NCI-H1651
How it was run: as §1

NCI-H1755 = test system: NCI-H1755
How it was run: as §1

NCI-H1792 = test system: NCI-H1792
How it was run: as §1

NCI-H1915 = test system: NCI-H1915
How it was run: as §1

NCI-H2347 = test system: NCI-H2347
How it was run: as §1

NCI-H3122 = test system: NCI-H3122
How it was run: as §1

NCI-H322M = test system: NCI-H322M
How it was run: as §1

NCI-H441 = test system: NCI-H441
How it was run: as §1

NCI-H460 = test system: NCI-H460
How it was run: as §1

NCI-H520 = test system: NCI-H520
How it was run: as §1

NCI-H522 = test system: NCI-H522
How it was run: as §1

NCI-H596 = test system: NCI-H596
How it was run: as §1

NCI-H661 = test system: NCI-H661
How it was run: as §1

NCI-H727 = test system: NCI-H727
How it was run: as §1

PC-14 = test system: PC-14
How it was run: as §1

RERF-LC-KJ = test system: RERF-LC-KJ
How it was run: as §1

SK-MES-1 = test system: SK-MES-1
How it was run: as §1

SW 900 = test system: SW 900
How it was run: as §1

COc1cc2nccc(Oc3ccc(NC(=O)Nc4cc(C)on4)c(Cl)c3)c2cc1OC [Tivozanib] + CCNC(=O)c1noc(-c2cc(C(C)C)c(O)cc2O)c1-c1ccc(CN2CCOCC2)cc1 [Luminespib] (partner 0.01 µM)
relative viability (LCLC-103H; first compound 0.005 µM): 0.847 | relative viability (LCLC-103H; first compound 0.01581 µM): 0.85 | relative viability (LCLC-103H; first compound 0.05 µM): 0.91 | relative viability (LCLC-103H; first compound 0.1581 µM): 0.964 | relative viability (LCLC-103H; first compound 0.5 µM): 0.921 | relative viability (LXF-289; first compound 0.005 µM): 0.582 | relative viability (LXF-289; first compound 0.01581 µM): 0.611 | relative viability (LXF-289; first compound 0.05 µM): 0.641 | relative viability (LXF-289; first compound 0.1581 µM): 0.689 | relative viability (LXF-289; first compound 0.5 µM): 0.773 | relative viability (NCI-H1355; first compound 0.005 µM): 0.612 | relative viability (NCI-H1355; first compound 0.01581 µM): 0.686 | relative viability (NCI-H1355; first compound 0.05 µM): 0.747 | relative viability (NCI-H1355; first compound 0.1581 µM): 0.462 | relative viability (NCI-H1355; first compound 0.5 µM): 0.728 | relative viability (NCI-H1563; first compound 0.005 µM): 0.45 | relative viability (NCI-H1563; first compound 0.01581 µM): 0.539 | relative viability (NCI-H1563; first compound 0.05 µM): 0.541 | relative viability (NCI-H1563; first compound 0.1581 µM): 0.52 | relative viability (NCI-H1563; first compound 0.5 µM): 0.472 | relative viability (NCI-H1651; first compound 0.005 µM): 0.86 | relative viability (NCI-H1651; first compound 0.01581 µM): 0.638 | relative viability (NCI-H1651; first compound 0.05 µM): 0.842 | relative viability (NCI-H1651; first compound 0.1581 µM): 0.883 | relative viability (NCI-H1651; first compound 0.5 µM): 0.931 | relative viability (NCI-H1755; first compound 0.005 µM): 0.466 | relative viability (NCI-H1755; first compound 0.01581 µM): 0.346 | relative viability (NCI-H1755; first compound 0.05 µM): 0.406 | relative viability (NCI-H1755; first compound 0.1581 µM): 0.329 | relative viability (NCI-H1755; first compound 0.5 µM): 0.453 | relative viability (NCI-H1792; first compound 0.005 µM): 0.457 | relative viability (NCI-H1792; first compound 0.01581 µM): 0.344 | relative viability (NCI-H1792; first compound 0.05 µM): 0.598 | relative viability (NCI-H1792; first compound 0.1581 µM): 0.415 | relative viability (NCI-H1792; first compound 0.5 µM): 0.551 | relative viability (NCI-H1915; first compound 0.005 µM): 0.719 | relative viability (NCI-H1915; first compound 0.01581 µM): 0.855 | relative viability (NCI-H1915; first compound 0.05 µM): 0.848 | relative viability (NCI-H1915; first compound 0.1581 µM): 0.799 | relative viability (NCI-H1915; first compound 0.5 µM): 0.8 | relative viability (NCI-H2347; first compound 0.01581 µM): 0.488 | relative viability (NCI-H2347; first compound 0.05 µM): 0.886 | relative viability (NCI-H2347; first compound 0.5 µM): 0.249 | relative viability (NCI-H3122; first compound 0.005 µM): 0.0849 | relative viability (NCI-H3122; first compound 0.01581 µM): 0.104 | relative viability (NCI-H3122; first compound 0.05 µM): 0.0902 | relative viability (NCI-H3122; first compound 0.1581 µM): 0.0689 | relative viability (NCI-H3122; first compound 0.5 µM): 0.0976 | relative viability (NCI-H322M; first compound 0.005 µM): 0.797 | relative viability (NCI-H322M; first compound 0.01581 µM): 0.882 | relative viability (NCI-H322M; first compound 0.05 µM): 0.958 | relative viability (NCI-H322M; first compound 0.1581 µM): 0.694 | relative viability (NCI-H322M; first compound 0.5 µM): 0.965 | relative viability (NCI-H441; first compound 0.005 µM): 0.367 | relative viability (NCI-H441; first compound 0.01581 µM): 0.446 | relative viability (NCI-H441; first compound 0.05 µM): 0.308 | relative viability (NCI-H441; first compound 0.1581 µM): 0.322 | relative viability (NCI-H441; first compound 0.5 µM): 0.399 | relative viability (NCI-H460; first compound 0.005 µM): 0.0252 | relative viability (NCI-H460; first compound 0.01581 µM): 0.0365 | relative viability (NCI-H460; first compound 0.05 µM): 0.0375 | relative viability (NCI-H460; first compound 0.1581 µM): 0.0404 | relative viability (NCI-H460; first compound 0.5 µM): 0.0362 | relative viability (NCI-H520; first compound 0.005 µM): 0.287 | relative viability (NCI-H520; first compound 0.01581 µM): 0.219 | relative viability (NCI-H520; first compound 0.05 µM): 0.222 | relative viability (NCI-H520; first compound 0.1581 µM): 0.328 | relative viability (NCI-H520; first compound 0.5 µM): 0.245 | relative viability (NCI-H522; first compound 0.005 µM): 0.903 | relative viability (NCI-H522; first compound 0.01581 µM): 1.01 | relative viability (NCI-H522; first compound 0.05 µM): 1.03 | relative viability (NCI-H522; first compound 0.1581 µM): 1.16 | relative viability (NCI-H522; first compound 0.5 µM): 1.22 | relative viability (NCI-H596; first compound 0.005 µM): 0.771 | relative viability (NCI-H596; first compound 0.01581 µM): 1.04 | relative viability (NCI-H596; first compound 0.05 µM): 1.04 | relative viability (NCI-H596; first compound 0.5 µM): 0.858 | relative viability (NCI-H661; first compound 0.005 µM): 0.958 | relative viability (NCI-H661; first compound 0.01581 µM): 0.956 | relative viability (NCI-H661; first compound 0.05 µM): 0.982 | relative viability (NCI-H661; first compound 0.1581 µM): 0.998 | relative viability (NCI-H661; first compound 0.5 µM): 0.953 | relative viability (NCI-H727; first compound 0.005 µM): 0.349 | relative viability (NCI-H727; first compound 0.01581 µM): 0.59 | relative viability (NCI-H727; first compound 0.05 µM): 0.468 | relative viability (NCI-H727; first compound 0.1581 µM): 0.528 | relative viability (NCI-H727; first compound 0.5 µM): 0.609 | relative viability (PC-14; first compound 0.005 µM): 0.115 | relative viability (PC-14; first compound 0.01581 µM): 0.139 | relative viability (PC-14; first compound 0.05 µM): 0.187 | relative viability (PC-14; first compound 0.1581 µM): 0.15 | relative viability (PC-14; first compound 0.5 µM): 0.139 | relative viability (RERF-LC-KJ; first compound 0.005 µM): 1.16 | relative viability (RERF-LC-KJ; first compound 0.01581 µM): 1.29 | relative viability (RERF-LC-KJ; first compound 0.05 µM): 1.25 | relative viability (RERF-LC-KJ; first compound 0.1581 µM): 1.25 | relative viability (RERF-LC-KJ; first compound 0.5 µM): 1.14 | relative viability (SK-MES-1; first compound 0.005 µM): 0.737 | relative viability (SK-MES-1; first compound 0.01581 µM): 0.832 | relative viability (SK-MES-1; first compound 0.05 µM): 0.773 | relative viability (SK-MES-1; first compound 0.1581 µM): 0.837 | relative viability (SK-MES-1; first compound 0.5 µM): 0.807 | relative viability (SW 900; first compound 0.005 µM): 0.174 | relative viability (SW 900; first compound 0.01581 µM): 0.186 | relative viability (SW 900; first compound 0.05 µM): 0.184 | relative viability (SW 900; first compound 0.1581 µM): 0.167 | relative viability (SW 900; first compound 0.5 µM): 0.172
